Assay: Solubility of triclosan in aqueous solutions, filtration methodology (filtrate analyzed for triclosan)
Assay type: physicochemical
Method: In the first set of experiments, the solubility of triclosan in the presence/ absence of KCl was measured using a filtration methodology in which the filtrate was analyzed for triclosan.
In the following experiments, triclosan solubility was measured with increasing concentrations of hydroxypropyl-beta-cyclodextrin (no SLS, no KCl).
In the next experiments, triclosan solubility was measured in the presence of hydroxypropyl-beta-cyclodextrin along with SLS and KCl.

SMILES: Oc1cc(Cl)ccc1Oc1ccc(Cl)cc1Cl [Triclosan, 2,4,4′-trichloro-2′-hydroxy-diphenyl ether]
- Appearance (0% SLS - 0% (control)): Suspension and no precipitate
- Appearance (1.5% SLS - 0% KCl): Suspension and no precipitate
- Appearance (1.5% SLS - 3.75% KCl): Turbid and thick precipitate
- Triclosan solubility, % (Table 3, 0% SLS - 0% (control)): 0.012%
- Triclosan solubility, % (Table 3, 1.5% SLS - 0% KCl): 0.330%
- Triclosan solubility, % (Table 3, 1.5% SLS - 0% KCl, listed as triclosan): increased the solubility
- Triclosan solubility, % (Table 3, 1.5% SLS - 3.75% KCl): 0.110%
- Triclosan solubility, % (Table 3, 1.5% SLS - 3.75% KCl, listed as triclosan): decreased solubility
- Triclosan solubility, % (Table 4, 0% HPβCD in water (no SLS, no KCl)): 0.012%
- Triclosan solubility, % (Table 4, 10% HPβCD in water (no SLS, no KCl)): 0.510%
- Triclosan solubility, % (Table 4, 15% HPβCD in water (no SLS, no KCl)): 0.680%
- Triclosan solubility, % (Table 4, 20% HPβCD in water (no SLS, no KCl)): 0.710%
- Triclosan solubility, % (Table 5, 0% SLS): 0.012%
- Triclosan solubility, % (Table 5, 1.5% SLS - 3.75% KCl): 0.011%
- Triclosan solubility, % (Table 5, 1.5% SLS - 3.75 KCl - 10% HPbCD): 0.190%
- Triclosan solubility, % (Table 5, 1.5% SLS - 3.75 KCl - 20% HPbCD): 0.380%
- triclosan solubility with increasing concentrations of hydroxypropyl-beta-cyclodextrin (no SLS, no KCl): increased in a dose-dependent manner
- triclosan solubility in the presence of hydroxypropyl-beta-cyclodextrin along with SLS and KCl (with SLS and KCl): increased solubility

Source: patent US20120039822A1, “DESENSITIZING DENTIFRICE” (priority 2009, published 2012)
